One test relates to VSMCs. Briefly: VSMC proliferation assay (BrdU incorporation). Type of test: cell-based, mouse. As to the method: Plates were UV sterilized before adding cells. […] For analysis of peritoneal macrophages, 4% thioglycolate-elicited peritoneal macrophages from Itg α9^MAC+/+ and Itg α9^MACfl/fl mice were suspended in BrdU dissolved in RPMI 1640 media containing 10% FBS. 2.5×10^4 cells were added to each well since peritoneal macrophages are smaller and have lower proliferation rates than VSMCs in culture.
Plates were ultraviolet (UV) sterilized before adding cells. […] Efficient Itgα9 knockdown was confirmed by qPCR.
On the technique in general: Uptake of a labelled nucleoside into DNA is a usual measure of proliferation.

For test [1], the system named is AKT. Briefly: AKT signaling immunoblot, platelets. The settings on record: platelets pretreated with inhibitor before SVEP1. Type of test: cell-based, human. On the procedure:
Prior to performing signaling assays, cells were trypsinized, centrifuged, suspended in basal media, and counted using an automated hemocytometer. Cells were further diluted in basal media to an assay-dependent concentration. Cells were then incubated with gentle agitation for 60 minutes to prevent cell attachment and reduce basal signaling. PP1, Dynasore, MK-2206, and Rapamycin were diluted in DMSO and used in assay concentrations of 10 μM, 100 μM, 10 μM, and respectively, for the final 20-30 minutes of incubation in basal media. An equal volume of DMSO was used as the negative control condition. […] 1 μg Pearl 1 polyclonal antibody was added as a specific positive control. 20% growth media or 2% fetal bovine serum, labeled “Serum” in figures, was added as a non-specific positive control. The cells were centrifuged at 300G for 3 minutes with the exception of platelets, which were centrifuged at 500G for 5 minutes. The cells were then incubated at 37° C. for 8-45 minutes, depending on the cell type and pathway of interest. The cells were lysed in radioimmunoprecipitation buffer (RIPA) containing a cocktail of protease and phosphatase inhibitors and universal nuclease. Immunoblots were performed by standard techniques, as briefly follows. Protein content was determined using a bicinchoninic acid assay with BSA standards (#23225, Pierce BCA Protein Assay Kit). Cell lysates were then reduced with dithiothreitol (DTT) in lithium dodecyl sulfate (LDS) sample buffer (#NP0007, Invitrogen). Equal protein amounts were added to polyacrylamide gels (#4561086, BioRad) and electrophoresed prior to transferring to a nitrocellulose or polyvinylidene fluoride membrane (#1620260, BioRad). Membranes were blocked in 5% BSA/Tris-buffered saline (TBS) with 0.1% Tween 20 for 30 minutes. The indicated primary antibodies were incubated with the pre-blocked membranes overnight at 4° C. Membranes were washed with TBS with 0.1% Tween 20, probed with fluorescent secondary antibodies, and imaged. β-actin or β-tubulin served as a loading control.
Whole blood was collected by venipuncture into either heparin vacutainers (BD, Franklin Lakes) for whole blood experiments or acid-citrate-dextrose (ACD) vacutainers (BD, Franklin Lakes) for platelet isolation studies. For platelet isolation, samples were supplemented with apyrase (Sigma, St Louis) and prostaglandin E1 (Cayman Chemical, Ann Arbor), and platelet-rich plasma (PRP) was prepared by centrifugation of the ACD whole blood for 20 minutes at 200G. Platelets were isolated from the PRP by centrifugation for 10 minutes at 1000G and resuspended in modified Tyrode's buffer twice at desired platelet counts and kept at 37° C. until used. Isolated platelets were used within 2 hours of preparation.
A general note: A western blot detects proteins with antibodies after separation by electrophoresis.

In test [2] the test system is AKT. Briefly: AKT signaling immunoblot / phospho-array, HUVECs. Type of test: cell-based, human. The settings on record: PP1 10 μM, Dynasore 100 μM, vs DMSO. On the procedure: Cellular reagents were purchased from various commercial vendors. Primary human umbilical vein endothelial cells (HUVECs) were obtained from Cell Applications Inc. and cultured according to the manufacture's recommendations. Primary human coronary artery smooth muscle cells were obtained from Invitrogen and were cultured according to the manufacture's recommendations. 293T cells were obtained from ATCC and were cultured according to the manufacture's recommendations. Mouse primary smooth muscle cells were obtained and cultured as described previously. Predesigned Silencer Select siRNA constructs targeting Pearl 1 and negative control siRNA were obtained from ThermoFisher. Transfections were performed using RNAiMAX or Lipofectamine 3000 transfection reagents according to the manufacturer's protocols. Cells were used for signaling assays 48 hours after transfection; efficient Pearl 1 knockdown or Pearl 1 overexpression was confirmed by immunoblot assays.
Prior to performing signaling assays, cells were trypsinized, centrifuged, suspended in basal media, and counted using an automated hemocytometer. Cells were further diluted in basal media to an assay-dependent concentration. Cells were then incubated with gentle agitation for 60 minutes to prevent cell attachment and reduce basal signaling. PP1, Dynasore, MK-2206, and Rapamycin were diluted in DMSO and used in assay concentrations of 10 μM, 100 μM, 10 μM, and respectively, for the final 20-30 minutes of incubation in basal media. An equal volume of DMSO was used as the negative control condition. […] 1 μg Pearl 1 polyclonal antibody was added as a specific positive control. 20% growth media or 2% fetal bovine serum, labeled “Serum” in figures, was added as a non-specific positive control. The cells were centrifuged at 300G for 3 minutes with the exception of platelets, which were centrifuged at 500G for 5 minutes. The cells were then incubated at 37° C. for 8-45 minutes, depending on the cell type and pathway of interest. The cells were lysed in radioimmunoprecipitation buffer (RIPA) containing a cocktail of protease and phosphatase inhibitors and universal nuclease. Immunoblots were performed by standard techniques, as briefly follows. Protein content was determined using a bicinchoninic acid assay with BSA standards (#23225, Pierce BCA Protein Assay Kit). Cell lysates were then reduced with dithiothreitol (DTT) in lithium dodecyl sulfate (LDS) sample buffer (#NP0007, Invitrogen). Equal protein amounts were added to polyacrylamide gels (#4561086, BioRad) and electrophoresed prior to transferring to a nitrocellulose or polyvinylidene fluoride membrane (#1620260, BioRad). Membranes were blocked in 5% BSA/Tris-buffered saline (TBS) with 0.1% Tween 20 for 30 minutes. […]

Another test has as its system mTOR. Briefly: mTOR signaling immunoblot, platelets. Type of test: cell-based, human. The settings on record: platelets pretreated with inhibitor before SVEP1. As to the method:
Prior to performing signaling assays, cells were trypsinized, centrifuged, suspended in basal media, and counted using an automated hemocytometer. Cells were further diluted in basal media to an assay-dependent concentration. Cells were then incubated with gentle agitation for 60 minutes to prevent cell attachment and reduce basal signaling. […] An equal volume of DMSO was used as the negative control condition. […] 1 μg Pearl 1 polyclonal antibody was added as a specific positive control. 20% growth media or 2% fetal bovine serum, labeled “Serum” in figures, was added as a non-specific positive control. The cells were centrifuged at 300G for 3 minutes with the exception of platelets, which were centrifuged at 500G for 5 minutes. The cells were then incubated at 37° C. for 8-45 minutes, depending on the cell type and pathway of interest. The cells were lysed in radioimmunoprecipitation buffer (RIPA) containing a cocktail of protease and phosphatase inhibitors and universal nuclease. Immunoblots were performed by standard techniques, as briefly follows. […] Cell lysates were then reduced with dithiothreitol (DTT) in lithium dodecyl sulfate (LDS) sample buffer (#NP0007, Invitrogen). […] Membranes were blocked in 5% BSA/Tris-buffered saline (TBS) with 0.1% Tween 20 for 30 minutes. The indicated primary antibodies were incubated with the pre-blocked membranes overnight at 4° C. Membranes were washed with TBS with 0.1% Tween 20, probed with fluorescent secondary antibodies, and imaged. β-actin or β-tubulin served as a loading control.
Whole blood was collected by venipuncture into either heparin vacutainers (BD, Franklin Lakes) for whole blood experiments or acid-citrate-dextrose (ACD) vacutainers (BD, Franklin Lakes) for platelet isolation studies. For platelet isolation, samples were supplemented with apyrase (Sigma, St Louis) and prostaglandin E1 (Cayman Chemical, Ann Arbor), and platelet-rich plasma (PRP) was prepared by centrifugation of the ACD whole blood for 20 minutes at 200G. […]

Test [3] in a line: Arterial blood pressure response to vasoactive agents. To be noted: venous administration, anesthetized Svep1+/+ and Svep1−/− mice. It is filed as in vivo, mouse. As to the method: Central arterial blood pressure and heart rate were measured under inhaled 1.5% isoflurane anesthesia and while mice were maintained at 37° C. using a heating pad and rectal thermometer, as done previously. Briefly, a midline incision was performed in the neck region; the thymus, muscle, and connective tissue were dissected away to isolate the right common carotid artery. After tying it distally and clamping it proximally, an incision was made in the right common carotid artery through which a Millar pressure transducer (model SPR-1000, Houston, Tex.) was introduced, the clamp was removed, and the transducer advanced to the ascending aorta. Once instrumentation was complete, arterial blood pressure (systolic, diastolic, and mean) and heart rate were recorded via the PowerLab® data acquisition system (ADlnstruments, Colorado Springs, Colo.). The average of a 3-minute period of stable recording was reported. Data were analyzed using LabChart® 8 for 673 MAC software (ADInstruments).
To assess the blood pressure response to vasoactive agents, after baseline blood pressure measurement, dissection was performed to visualize the left internal jugular (IJ) vein as done previously. Once identified, a small incision was made and PE-10 tubing was introduced and kept in place with a 6-0 silk suture. […]

With `C[C@H](NC(=O)Cc1cc(F)cc(F)c1)C(=O)N[C@H](C(=O)OC(C)(C)C)c1ccccc1` [DAPT, reference compound], the “effect on cell proliferation in response to 10% fetal bovine serum” value in the test on VSMCs (25 μM DAPT) is on record as “not significantly inhibited”. The “effect on SVEP1-induced proliferation” value in the test with VSMCs (25 μM DAPT vs DMSO) is listed as “completely abrogated”.

Take `O=C(N/N=C/c1ccc(O)c(O)c1)c1cc2ccccc2cc1O` [Dynasore]: the “effect of inhibitor on activation of AKT by SVEP1” value with AKT [1] is “partially abrogated”. For the same compound, the “effect of inhibitor pretreatment on AKT activation by SVEP1 and Pearl 1 pAb” value in the test with AKT [2] is “abrogated”. Besides, the “dependence of SVEP1-induced p70S6K Thr 389 phosphorylation on the inhibited protein or process” value (“dependence … on the inhibited protein or process” for short) with mTOR is listed as “partially dependent”.

In the case of `NC1(c2ccc(-c3nc4ccn5c(=O)[nH]nc5c4cc3-c3ccccc3)cc2)CCC1` [MK-2206], in the test with AKT [1], the “effect of inhibitor on activation of AKT by SVEP1” value is on record as “completely abrogated”. For the same compound, in the test with mTOR, the “dependence … on the inhibited protein or process” value was “partially dependent”.

With `Cc1ccc(-c2nn(C(C)(C)C)c3ncnc(N)c23)cc1` [PP1], the “effect of inhibitor on activation of AKT by SVEP1” value with AKT [1] is reported as “completely abrogated”. The “effect of inhibitor pretreatment on AKT activation by SVEP1 and Pearl 1 pAb” value with AKT [2] is listed as “abrogated”. The “dependence … on the inhibited protein or process” value in the test on mTOR is given as “dependent”.

In the case of `CNC[C@H](O)c1cccc(O)c1` [phenylephrine], in test [3], the “change in blood pressure” value was “dose-dependent manner”.

As to angiotensin II, the “change in blood pressure” value in test [3] is recorded as “dose-dependent manner”.
